Assay results reported in ChEMBL document CHEMBL6078630, “Design, synthesis, and bioactivity investigation of novel cyclic lipopeptide antibiotics targeting top-priority multidrug-resistant gram-negative bacteria” (Eur J Med Chem, 2024).
Bridge positions count the residues as written; N and C are the ends. Square brackets hold non-standard residues; d marks the D form. Peptide text beside a SMILES is read from it. * marks the point of attachment. Octanoyl(6-Me) = CCC(C)CCCCC(=O)*; Dab = NCC[C@H](N)C(=O)O

How the values were obtained:
[1] = Acute toxicity in iv dosed Swiss mouse assessed as maximum tolerated dose measured after 24 hrs; assay type: organism-based; settings: in vivo
Klebsiella pneumoniae = experiment: Antibacterial activity against carbapenem-resistant Klebsiella pneumoniae ATCC BAA-1705 infected in ICR mouse model administered intravenously with compound at 1 and 6 hrs post-infection and measured after 7 days; assay type: functional; settings: ATCC BAA-1705, 168 h, route iv, time 7 day
Escherichia coli = experiment: Antibacterial activity against Escherichia coli ATCC BAA-2523 infected in ICR mouse model administered intravenously with compound at 1 and 6 hrs post-infection and measured after 7 days; assay type: functional; settings: ATCC BAA-2523, 168 h, route iv, time 7 day
Acinetobacter baumannii = experiment: Antibacterial activity against carbapenem-resistant Acinetobacter baumannii NCTC13304 infected in ICR mouse model administered intravenously with compound at 1 and 6 hrs post-infection and measured after 7 days; assay type: functional; settings: NCTC13304, 168 h, route iv, time 7 day
Pseudomonas aeruginosa [2] = experiment: Antibacterial activity against Pseudomonas aeruginosa ATCC 27853 infected in ICR mouse model administered intravenously with compound at 1 and 6 hrs post-infection and measured after 7 days; assay type: functional; settings: ATCC 27853, 168 h, route iv, time 7 day
Pseudomonas aeruginosa [3] = experiment: Antibacterial activity against Pseudomonas aeruginosa ATCC 27853 infected in ICR mouse model infected in ICR mouse model assessed as survival rate at 20 mg/kg, iv administered at 1 and 6 hrs post-infection and measured after 7 days relative to control; assay type: functional; settings: ATCC 27853, 168 h, time 7 day

Structure (SMILES): CCC(C)CCCCC(=O)N[C@@H](CCN)C(=O)N[C@H](C(=O)N[C@@H](CCN)C(=O)N[C@H]1CCNC(=O)[C@H]([C@@H](C)O)NC(=O)[C@H](CCN)NC(=O)[C@H](CCN)NC(=O)[C@H](CC(C)C)NC(=O)[C@@H](CC(C)C)NC(=O)[C@H](CCN)NC1=O)[C@@H](C)O (stereo partly drawn) ({Octanoyl(6-Me)}-[Dab]T[Dab][Dab][Dab][dL]L[Dab][Dab]T; lactam 4-C) [listing 1 of 2 here]
- MTD at 24 h [1]: 5.3 mg/kg

Structure (SMILES): CCC(C)CCCCC(=O)N[C@@H](CCN)C(=O)N[C@H](C(=O)N[C@@H](CCN)C(=O)N[C@H]1CCNC(=O)[C@H]([C@@H](C)O)NC(=O)[C@H](CCN)NC(=O)[C@H](CCN)NC(=O)[C@H](CC(C)C)NC(=O)[C@@H](CC(C)C)NC(=O)[C@H](CCN)NC1=O)[C@@H](C)O (stereo partly drawn) ({Octanoyl(6-Me)}-[Dab]T[Dab][Dab][Dab][dL]L[Dab][Dab]T; lactam 4-C) [listing 2 of 2 here]
- ED50 (Klebsiella pneumoniae): 0.39 mg/kg
- ED50 (Escherichia coli): 0.47 mg/kg
- ED50 (Acinetobacter baumannii): 0.98 mg/kg

Structure (SMILES): C[C@@H](O)[C@H]1C(=O)N2C(C(=O)O)=C(S[C@@H]3CN[C@H](C(=O)N(C)C)C3)[C@H](C)[C@H]12 [MEROPENEM]
- ED50 (Pseudomonas aeruginosa [2]): 7.07 mg/kg
- survival at 20 mg/kg (Pseudomonas aeruginosa [3]): 100%
